From paper PMC10108353, “Design and Pharmacological Characterization of α4β1 Integrin Cyclopeptide Agonists: Computational Investigation of Ligand Determinants for Agonism versus Antagonism” (Journal of Medicinal Chemistry, 2023)

Legend:
α5β1 integrin = α5β1 integrin (Homo sapiens, UniProt P05556+P08648); experiment: Competitive solid-phase binding assay, purified α5β1 / FN; details: read-out: Binding affinity IC50, α5β1/FN
Method: Solid-phase ligand binding assays on purified integrin were conducted as previously described[34] with the following modifications. […] The following day, wells were blocked with TSB buffer (20 mM Tris-HCl, 150 mM NaCl, 1 mM CaCl2, 1 mM MgCl2, 1 mM MnCl2, pH 7.5, 1% BSA) for 1 h at room temperature. Purified α5β1 (10 μg/mL) or αLβ2 (7 μg/mL) was incubated with the new synthesized compounds, at different concentrations (10^–4 to 10^–10 M), in coated wells for 1 h at RT. Then, after three washes with PBST buffer, primary antibody (anti-α5β1, BD Bioscience, 1:100 dilution or anti-αL, Abcam, 1:200 dilution) was added for 1 h at RT. Then antirabbit AlexaFluor488-secondary antibody (ThermoFisher Scientific, 1:400 dilution) was added after three washes with PBST buffer and incubated 1 h at room temperature.

αMβ2 integrin [1] = molecular target: T1, αMβ2 integrin (Homo sapiens, UniProt P05107+P11215); experiment: Competitive solid-phase binding assay, purified αMβ2 / fibrinogen; design: purchased R&D Systems; details: read-out: Binding affinity IC50, αMβ2/Fg
Method: (§1) For the evaluation of binding affinity to purified α4β1, αMβ2, and α4β7 integrins, competitive solid-phase ligand binding assays were performed as follows. […] Afterward, each well was washed and blocked for 1 h at RT. Purified integrins (α4β1: 0.5 μg/mL; α4β7: 0.5 μg/mL; αMβ2: 0.5 μg/mL; R&D Systems) were preincubated with serial dilutions of new compounds (10^–4 – 10^–10 M) for 30 min at RT and then plated into coated wells for 1 h at RT. After two washes, primary antibody (for α4β1 and α4β7: rabbit anti-α4, Abcam, 1:100 dilution; for αMβ2: rabbit anti-αM, Abcam, 1:100 dilution) was added and incubated for 1 h at RT. The plate was washed twice and then was incubated with anti-rabbit AlexaFluor488 secondary antibody (1:400 dilution, ThermoFischer Scientific) for 1 h at RT. After washing three times, fluorescence was measured as described in the previous section.

αMβ2 integrin [2] = molecular target: T1, αMβ2 integrin; experiment: HL60 cell adhesion to fibrinogen (Fg); format: cell-based; details: read-out: IC50 for antagonists, Fg/HL60 αMβ2
Excerpt: (§2) mediated Jurkat cell adhesion to FN.

α4β7 integrin = molecular target: T2, α4β7 integrin (Homo sapiens, UniProt P13612+P26010); experiment: cell-based; format: cell-based; details: for IC50: reduction of cell adhesion, >5000 = inactive compounds (IC50/EC50), read-out: IC50 for antagonists, MAdCAM-1/RPMI8866 α4β7
T2 construct: RPMI8866 cells expressing α4β7 integrin to the ligand MAdCAM-1; endogenous in cells; host or cells: RPMI8866
T2 sequence (P13612 34-1032): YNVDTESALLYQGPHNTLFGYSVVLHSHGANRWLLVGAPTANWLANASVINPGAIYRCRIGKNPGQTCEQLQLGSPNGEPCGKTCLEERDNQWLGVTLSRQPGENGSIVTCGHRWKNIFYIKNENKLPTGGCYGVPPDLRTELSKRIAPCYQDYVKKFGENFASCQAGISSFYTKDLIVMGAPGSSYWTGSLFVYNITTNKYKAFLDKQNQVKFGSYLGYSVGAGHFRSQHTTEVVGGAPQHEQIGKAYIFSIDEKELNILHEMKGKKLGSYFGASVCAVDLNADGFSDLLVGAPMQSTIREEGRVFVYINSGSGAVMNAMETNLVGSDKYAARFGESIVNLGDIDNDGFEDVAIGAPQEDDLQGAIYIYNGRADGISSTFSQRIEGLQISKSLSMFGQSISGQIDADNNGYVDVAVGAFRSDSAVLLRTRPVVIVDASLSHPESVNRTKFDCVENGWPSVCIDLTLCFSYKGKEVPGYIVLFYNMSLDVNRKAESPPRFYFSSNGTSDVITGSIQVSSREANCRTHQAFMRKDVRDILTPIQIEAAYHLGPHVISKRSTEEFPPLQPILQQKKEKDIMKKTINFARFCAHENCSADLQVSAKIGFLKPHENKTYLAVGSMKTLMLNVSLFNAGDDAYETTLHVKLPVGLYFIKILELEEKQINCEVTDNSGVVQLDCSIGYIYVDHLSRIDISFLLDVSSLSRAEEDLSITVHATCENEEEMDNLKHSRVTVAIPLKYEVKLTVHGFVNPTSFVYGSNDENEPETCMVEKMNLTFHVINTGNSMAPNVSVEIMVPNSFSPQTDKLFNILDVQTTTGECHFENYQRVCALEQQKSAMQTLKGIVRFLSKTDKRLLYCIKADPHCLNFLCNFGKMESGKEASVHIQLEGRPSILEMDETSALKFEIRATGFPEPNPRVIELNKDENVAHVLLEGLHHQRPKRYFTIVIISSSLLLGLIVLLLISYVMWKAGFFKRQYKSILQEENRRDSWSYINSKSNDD
T2 sequence (P26010 20-798): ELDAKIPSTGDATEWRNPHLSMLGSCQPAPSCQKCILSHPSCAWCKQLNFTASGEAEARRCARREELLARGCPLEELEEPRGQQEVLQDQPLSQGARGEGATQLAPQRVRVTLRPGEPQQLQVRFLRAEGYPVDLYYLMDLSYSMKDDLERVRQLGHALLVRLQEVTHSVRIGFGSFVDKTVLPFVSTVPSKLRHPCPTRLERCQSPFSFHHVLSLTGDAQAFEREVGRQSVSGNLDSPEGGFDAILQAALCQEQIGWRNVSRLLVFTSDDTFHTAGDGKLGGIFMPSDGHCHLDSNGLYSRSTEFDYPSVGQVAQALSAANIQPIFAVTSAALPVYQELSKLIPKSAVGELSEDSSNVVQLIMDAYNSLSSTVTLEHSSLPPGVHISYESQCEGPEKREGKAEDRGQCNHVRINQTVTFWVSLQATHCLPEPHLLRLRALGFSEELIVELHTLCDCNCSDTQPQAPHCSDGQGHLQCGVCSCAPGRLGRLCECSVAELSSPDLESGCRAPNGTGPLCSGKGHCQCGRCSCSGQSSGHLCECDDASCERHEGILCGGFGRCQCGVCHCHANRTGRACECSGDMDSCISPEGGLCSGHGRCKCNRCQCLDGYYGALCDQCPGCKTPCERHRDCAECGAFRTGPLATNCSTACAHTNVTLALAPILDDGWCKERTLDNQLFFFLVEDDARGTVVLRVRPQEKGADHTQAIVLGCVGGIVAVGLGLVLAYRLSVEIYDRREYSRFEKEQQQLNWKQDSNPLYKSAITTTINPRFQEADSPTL
Excerpt: as §2

α4β1 integrin [3] = molecular target: T3, α4β1 integrin (Homo sapiens, UniProt P05556+P13612); experiment: Competitive solid-phase binding assay, purified α4β1 / FN; design: purchased R&D Systems; details: mean ± SD, three experiments in triplicate, read-out: Binding affinity IC50, α4β1/FN
Method: as §1

α4β1 integrin [4] = molecular target: T3, α4β1 integrin; experiment: Jurkat E6.1 cell adhesion to FN; details: for agonist or antagonist behaviour, FN/Jurkat E6.1 α4β1: agonist = adhesion index >1, antagonist = adhesion index <1

SMILES	IC50 (α5β1 integrin)	IC50 (αMβ2 integrin [1])	IC50 (αMβ2 integrin [2])	agonist or antagonist behaviour, MAdCAM-1/RPMI8866 α4β7 (α4β7 integrin; agonist = adhesion index >1, antagonist = adhesion index <1)	IC50 (α4β7 integrin)	IC50 (α4β1 integrin [3])	agonist or antagonist behaviour, FN/Jurkat E6.1 α4β1 (α4β1 integrin [4])	EC50 (α4β1 integrin [4]; read-out: EC50 for agonists, FN/Jurkat E6.1 α4β1, increase of cell adhesion, mean ± SD, three experiments in quadruplicate)
Cc1ccccc1NC(=O)N1C(=O)CC1CC(=O)O (centres unmarked) [1a]	> 5 µM	> 5 µM	> 5 µM	inactive	> 5 µM	0.0133 ± 0.0063 µM	agonist	0.0156 ± 0.0015 µM
Cc1ccccc1NC(=O)N1C(=O)CC1CC(=O)NCC(=O)O (centres unmarked) [1b]	0.049 ± 0.007 µM	> 5 µM	> 5 µM	–	> 5 µM	> 5 µM	completely ineffective	–
